Among the data in US11702411B2, “Pyridine, pyrazine, and triazine compounds as allosteric SHP2 inhibitors” (Revolution Medicines, Inc., priority 2017, dated 2023) are IC50 values, retold here.

Chain of SHP2 (Q06124 whole entry): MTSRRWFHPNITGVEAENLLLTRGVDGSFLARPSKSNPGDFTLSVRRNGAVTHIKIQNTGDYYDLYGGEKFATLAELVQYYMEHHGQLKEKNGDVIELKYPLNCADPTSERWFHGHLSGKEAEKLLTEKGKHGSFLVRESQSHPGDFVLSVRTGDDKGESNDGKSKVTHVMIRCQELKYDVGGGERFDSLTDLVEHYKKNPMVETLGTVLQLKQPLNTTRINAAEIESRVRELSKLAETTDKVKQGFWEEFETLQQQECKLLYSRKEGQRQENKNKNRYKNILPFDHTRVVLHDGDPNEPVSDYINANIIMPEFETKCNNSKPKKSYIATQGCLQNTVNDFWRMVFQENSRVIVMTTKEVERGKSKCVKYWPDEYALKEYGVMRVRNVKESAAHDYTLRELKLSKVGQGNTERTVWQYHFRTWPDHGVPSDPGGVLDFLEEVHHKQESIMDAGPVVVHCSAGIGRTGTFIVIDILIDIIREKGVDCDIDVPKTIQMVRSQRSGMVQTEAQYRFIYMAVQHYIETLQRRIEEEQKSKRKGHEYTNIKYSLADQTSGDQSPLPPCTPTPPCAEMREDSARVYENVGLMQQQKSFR

One experiment has as its target SHP2 (Homo sapiens (Human), UniProt Q06124). Put plainly: SHP2 allosteric inhibition assay (DiFMUP prompt fluorescence, activating peptide). The conditions noted are these: 0.2 nM SHP2, 0.5 μM activating peptide, DiFMUP substrate; read-out: SHP2 Allosteric IC50. It is filed as biochemical. The source says:
Without wishing to be bound by theory, SHP is allosterically activated through binding of bis-tyrosyl-phosphorylated peptides to its Src Homology 2 (SH2) domains. The latter activation step leads to the release of the auto-inhibitory interface of SHP2, which in turn renders the SHP2 protein tyrosine phosphatase (PTP) active and available for substrate recognition and reaction catalysis. The catalytic activity of SHP2 was monitored using the surrogate substrate DiFMUP in a prompt fluorescence assay format.
The phosphatase reactions were performed at room temperature in 96-well black polystyrene plate, flat bottom, non-binding surface (Corning, Cat #3650) using a final reaction volume of 100 μL and the following assay buffer conditions: 50 mM HEPES, pH 7.2, 100 mM NaCl, 0.5 mM EDTA, 0.05% P-20, 1 mM DTT.
The inhibition of SHP2 by compounds of the present disclosure (concentrations varying from 0.00005-10 μM) was monitored using an assay in which 0.2 nM of SHP2 was incubated with 0.5 μM of Activating Peptide 1 (sequence: H2N-LN(pY)IDLDLV(dPEG8)LST(pY)ASINFQK-amide) or Activating Peptide 2 (sequence: H2N-LN(pY)AQLWHA(dPEG8)LTI(pY)ATIRRF-amide). After 30-60-minutes incubation at 25° C., the surrogate substrate DiFMUP (Invitrogen, Cat #D6567) was added to the reaction and activity was determined by a kinetic read using a microplate reader (Envision, Perkin-Elmer or Spectramax M5, Molecular Devices). The excitation and emission wavelengths were 340 nm and 450 nm, respectively. Initial rates were determined from a linear fit of the data, and the inhibitor dose response curves were analyzed using normalized IC50 regression curve fitting with control based normalization.
For `C[C@@H]1OCC2(CCN(c3ncc(Sc4ccnc(N)c4Cl)nc3CO)CC2)[C@@H]1N` [Compound 31, {6-[(2-amino-3-chloropyridin-4-yl)sulfanyl]-3-[(3S,4S)-4-amino-3-methyl-2-oxa-8-azaspiro[4.5]decan-8-yl]pyrazin-2-yl}methanol], the IC50 (as a rule, the midpoint of a concentration-inhibition curve) was at most 50 nM.

As for `C[C@@H]1OCC2(CCN(c3ncc(-c4cc5[nH]ncc5cc4Cl)nc3CO)CC2)[C@@H]1N` [Compound 14, {3-[(3S,4S)-4-amino-3-methyl-2-oxa-8-azaspiro[4.5]decan-8-yl]-6-(5-chloro-2H-indazol-6-yl)pyrazin-2-yl}methanol], the IC50 lay within 50 to 500 nM.

With `CC1(N)CCN(c2ncc(Sc3ccnc(N)c3Cl)nc2CO)CC1` [Compound 4, (6-((2-amino-3-chloropyridin-4-yl)thio)-3-(4-amino-4-methylpiperidin-1-yl)pyrazin-2-yl)methanol], the IC50 was at most 50 nM.

`C[C@@H]1OCC2(CCN(c3ncc(Sc4ccnc(NC5CCOCC5)c4Cl)nc3CO)CC2)[C@@H]1N` [Compound 27, {3-[(3S,4S)-4-amino-3-methyl-2-oxa-8-azaspiro[4.5]decan-8-yl]-6-({3-chloro-2-[(oxan-4-yl)amino]pyridin-4-yl}sulfanyl)pyrazin-2-yl}methanol]: the IC50 was at most 50 nM.

For `C[C@@H]1OCC2(CCN(c3ncc(-c4ccc5[nH]ncc5c4)nc3CO)CC2)[C@@H]1N` [Compound 20, {3-[(3S,4S)-4-amino-3-methyl-2-oxa-8-azaspiro[4.5]decan-8-yl]-6-(2H-indazol-5-yl)pyrazin-2-yl}methanol], the IC50 fell in the range of 50 to 500 nM.

Consider `C[C@@H]1OCC2(CCN(c3ncc(Sc4cccc(C(=O)N(C)C)c4Cl)nc3CO)CC2)[C@@H]1N` [Compound 28, 3-({5-[(3S,4S)-4-amino-3-methyl-2-oxa-8-azaspiro[4.5]decan-8-yl]-6-(hydroxymethyl)pyrazin-2-yl}sulfanyl)-2-chloro-N,N-dimethylbenzamide], for which the IC50 is at most 50 nM.

As for `COc1cccc(Sc2cnc(N3CCC4(CC3)CO[C@@H](C)[C@H]4N)c(CO)n2)c1Cl` [Compound 25, {3-[(3S,4S)-4-amino-3-methyl-2-oxa-8-azaspiro[4.5]decan-8-yl]-6-[(2-chloro-3-methoxyphenyl)sulfanyl]pyrazin-2-yl}methanol], the IC50 was at most 50 nM.

For the compound `COc1ccc(Cl)c(Cl)c1-c1cnc(N2CCC3(CC2)CO[C@@H](C)[C@H]3N)c(CO)n1` [Compound 7, {3-[(3S,4S)-4-amino-3-methyl-2-oxa-8-azaspiro[4.5]decan-8-yl]-6-(2,3-dichloro-6-methoxyphenyl)pyrazin-2-yl}methanol], the IC50 was over 500 nM.

With `C[C@@H]1OCC2(CCN(c3ncc(Sc4cc(N)ncc4Cl)nc3CO)CC2)[C@@H]1N` [Compound 32, {3-[(3S,4S)-4-amino-3-methyl-2-oxa-8-azaspiro[4.5]decan-8-yl]-6-[(2-amino-5-chloropyridin-4-yl)sulfanyl]pyrazin-2-yl}methanol], the IC50 was at most 50 nM.

As to `C[C@@H]1OCC2(CCN(c3ncc(-c4ccc5c(c4Cl)OCC5)nc3CO)CC2)[C@@H]1N` [Compound 10, {3-[(3S,4S)-4-amino-3-methyl-2-oxa-8-azaspiro[4.5]decan-8-yl]-6-(7-chloro-2,3-dihydro-1-benzofuran-6-yl)pyrazin-2-yl}methanol], the IC50 is 50 to 500 nM.

On to `N[C@@H]1CCCC12CCN(c1ncc(-c3cccc(Cl)c3Cl)nc1CO)CC2` [Compound 2, (3-[(1R)-1-amino-8-azaspiro[4.5]decan-8-yl]-6-(2,3-dichlorophenyl)pyrazin-2-yl)methanol], for which the IC50 was in the range of 50 to 500 nM.

`COc1ccc(F)c(-c2cnc(N3CCC4(CC3)CO[C@@H](C)[C@H]4N)c(CO)n2)c1Cl` [Compound 17, {3-[(3S,4S)-4-amino-3-methyl-2-oxa-8-azaspiro[4.5]decan-8-yl]-6-(2-chloro-6-fluoro-3-methoxyphenyl)pyrazin-2-yl}methanol]: the IC50 was over 500 nM.

Regarding `C[C@@H]1OCC2(CCN(c3ncc(-c4ccc5nccnc5c4)nc3CO)CC2)[C@@H]1N` [Compound 12, {3-[(3S,4S)-4-amino-3-methyl-2-oxa-8-azaspiro[4.5]decan-8-yl]-6-(quinoxalin-6-yl)pyrazin-2-yl}methanol], the IC50 was over 500 nM.

As for `C[C@@H]1OCC2(CCN(c3ncc(Sc4ccnc(N5CC(S(C)(=O)=O)C5)c4Cl)nc3CO)CC2)[C@@H]1N` [Compound 26, {3-[(3S,4S)-4-amino-3-methyl-2-oxa-8-azaspiro[4.5]decan-8-yl]-6-{[3-chloro-2-(3-methanesulfonylazetidin-1-yl)pyridin-4-yl]sulfanyl}pyrazin-2-yl}methanol], the IC50 is at most 50 nM.

In the case of `C[C@@H]1OCC2(CCN(c3ncc(Sc4cccc(C#N)c4Cl)nc3CO)CC2)[C@@H]1N` [Compound 22, 3-({5-[(3S,4S)-4-amino-3-methyl-2-oxa-8-azaspiro[4.5]decan-8-yl]-6-(hydroxymethyl)pyrazin-2-yl}sulfanyl)-2-chlorobenzonitrile], the IC50 was at most 50 nM.

For `CC1(N)CCN(c2ncc(-c3cccc(Cl)c3Cl)nc2CO)CC1` [Compound 3, [3-(4-amino-4-methylpiperidin-1-yl)-6-(2,3-dichlorophenyl)pyrazin-2-yl]methanol], the IC50 was 50 to 500 nM.

For `N[C@@H]1CCCC12CCN(c1ncc(-c3cccc(Cl)c3Cl)nc1C(F)F)CC2` [Compound 34, (1R)-8-[5-(2,3-dichlorophenyl)-3-(difluoromethyl)pyrazin-2-yl]-8-azaspiro[4.5]decan-1-amine], the IC50 lay in the range of 50 to 500 nM.

For the compound `C[C@@H]1OCC2(CCN(c3ncc(-c4cccc(Cl)c4Cl)nc3CO)CC2)[C@@H]1N` [Compound 21, {3-[(3S,4S)-4-amino-3-methyl-2-oxa-8-azaspiro[4.5]decan-8-yl]-6-(2,3-dichlorophenyl)pyrazin-2-yl}methanol], the IC50 is at most 50 nM.

Turning to `C[C@@H]1OCC2(CCN(c3ncc(-c4cccc(Cl)c4Cl)nc3C(F)F)CC2)[C@@H]1N` [Compound 35, (3S,4S)-8-[5-(2,3-dichlorophenyl)-3-(difluoromethyl)pyrazin-2-yl]-3-methyl-2-oxa-8-azaspiro[4.5]decan-4-amine], the IC50 lay within 50 to 500 nM.

With `N[C@@H]1CCCC12CCN(c1ncc(-c3ccnc(Cl)c3Cl)nc1CO)CC2` [Compound 1, (3-[(1R)-1-amino-8-azaspiro[4.5]decan-8-yl]-6-(2,3-dichloropyridin-4-yl)pyrazin-2-yl)methanol], the half-maximal inhibitory concentration (IC50) was in the range of 50 to 500 nM.

As for `C[C@@H]1OCC2(CCN(c3ncc(-c4cc(Cl)c5cn[nH]c5c4)nc3CO)CC2)[C@@H]1N` [Compound 13, {3-[(3S,4S)-4-amino-3-methyl-2-oxa-8-azaspiro[4.5]decan-8-yl]-6-(4-chloro-2H-indazol-6-yl)pyrazin-2-yl}methanol], the IC50 is 50 to 500 nM.

On to `C[C@@H]1OCC2(CCN(c3ncc(-c4cc5ccccc5n4C)nc3CO)CC2)[C@@H]1N` [Compound 15, {3-[(3S,4S)-4-amino-3-methyl-2-oxa-8-azaspiro[4.5]decan-8-yl]-6-(1-methyl-1H-indol-2-yl)pyrazin-2-yl}methanol], for which the half-maximal inhibitory concentration (IC50) is at most 50 nM.

Take `C[C@@H]1OCC2(CCN(c3ncc(-c4cccc5cc[nH]c45)nc3CO)CC2)[C@@H]1N` [Compound 11, {3-[(3S,4S)-4-amino-3-methyl-2-oxa-8-azaspiro[4.5]decan-8-yl]-6-(1H-indol-7-yl)pyrazin-2-yl}methanol]: the IC50 was at most 50 nM.

Consider `COc1nccc(Sc2cnc(N3CCC4(CC3)CO[C@@H](C)[C@H]4N)c(CO)n2)c1Cl` [Compound 24, {3-[(3S,4S)-4-amino-3-methyl-2-oxa-8-azaspiro[4.5]decan-8-yl]-6-[(3-chloro-2-methoxypyridin-4-yl)sulfanyl]pyrazin-2-yl}methanol], for which the IC50 was at most 50 nM.

`C[C@@H]1OCC2(CCN(c3ncc(-c4c(Cl)ccc(Cl)c4Cl)nc3CO)CC2)[C@@H]1N` [Compound 18, {3-[(3S,4S)-4-amino-3-methyl-2-oxa-8-azaspiro[4.5]decan-8-yl]-6-(2,3,6-trichlorophenyl)pyrazin-2-yl}methanol]: the IC50 lay within 50 to 500 nM.

With `C[C@@H]1OCC2(CCN(c3ncc(-c4ccc5c(c4Cl)OCCC5)nc3CO)CC2)[C@@H]1N` [Compound 16, {3-[(3S,4S)-4-amino-3-methyl-2-oxa-8-azaspiro[4.5]decan-8-yl]-6-(8-chloro-3,4-dihydro-2H-1-benzopyran-7-yl)pyrazin-2-yl}methanol], the IC50 was in the range of 50 to 500 nM.

`C[C@@H]1OCC2(CCN(c3ncc(-c4ccc5nccnc5c4Cl)nc3CO)CC2)[C@@H]1N` [Compound 9, {3-[(3S,4S)-4-amino-3-methyl-2-oxa-8-azaspiro[4.5]decan-8-yl]-6-(5-chloroquinoxalin-6-yl)pyrazin-2-yl}methanol]: the IC50 was in the range of 50 to 500 nM.

Staying with this experiment, now noted: 0.2 nM SHP2, 0.5 μM activating peptide, DiFMUP substrate; read-out: SHP2 IC50.
Regarding `N[C@@H]1CCCC12CCN(c1ncc(-c3cccc(Cl)c3Cl)nc1CO)CC2` [Compound 2, (3-[(1R)-1-amino-8-azaspiro[4.5]decan-8-yl]-6-(2,3-dichlorophenyl)pyrazin-2-yl)methanol], the IC50 was found to be 88 nM.

Regarding `CC1(N)CCN(c2ncc(-c3cccc(Cl)c3Cl)nc2CO)CC1` [Compound 3, [3-(4-amino-4-methylpiperidin-1-yl)-6-(2,3-dichlorophenyl)pyrazin-2-yl]methanol], the IC50 was 461 nM.

For `N[C@@H]1CCCC12CCN(c1ncc(-c3ccnc(Cl)c3Cl)nc1CO)CC2` [Compound 1, (3-[(1R)-1-amino-8-azaspiro[4.5]decan-8-yl]-6-(2,3-dichloropyridin-4-yl)pyrazin-2-yl)methanol], the IC50 came out at 145 nM.
